“And” between values parts separate entries of the source, which are not always exact repeats. Equal values may be shown once. Read-outs that look alike come from different tables or passages of the source.
What was measured:
CypD [1] = molecular target: T1, CypD (Homo sapiens, UniProt P30405); experiment: Chymotrypsin coupled prolyl-isomerase assay; assay type: biochemical
T1 construct: PPIF (UniProtKB Entry P30405: res 45-207); made in house; host or cells: E. coli BL21(DE3)
Procedure: (§1) IC50 values were calculated to be the value at which 50% inhibition was achieved on each compound's non-linear regression fitted curve.

cyclophilins = experiment: Prolyl-isomerase inhibition screen on cyclophilins and cyclophilin mutants; assay type: biochemical, human
Procedure: as §1

HeLa cells = experiment: Fluorescence microscopy on HeLa cells; assay type: cell-based, human; settings: Cy5 labeled compound 6 μM
Procedure: Fluorescence microscopy on Hela cells. Into 96 well black, clear bottom TC treated plates, cells were seeded in Dulbecco's Modified Eagle Medium (DMEM) supplemented with 10% fetal bovine serum 24 hours prior at a density where wells were ˜80% confluent at time of experiment. Media was removed and cells were then stained with 50 μL of mixture containing Cy5 labeled compound (6 μM) in Kreb's ringer solution HEPES buffered pH 7.2 (KRB), for 1 hour at 37° C. Then, 50 μL Hoechst 33342 (8 μM) and Mitotracker Green FM (0.1 μM) in KRB was added directly to wells containing cells and incubated for 15 minutes at 37° C. Media was removed and cells were washed two times with 100 μL KRB. Cells were then kept adherent to the wells in 100 μL KRB for imaging. Fluorescence microscopy was conducted on an Opera Phenix Plus High-Content Screening System, using Alexa 488, Alexa 647, and Hoescht 33342 channels. Images were analyzed using Harmony 4.9.

[2] = system: mPTP opening in isolated mouse liver mitochondria; experiment: Mitochondrial calcium retention capacity assay; assay type: cell-based; settings: 2 μM CsA, 10 μM B52-Cy5, 10 μM *B52-Cy5, 20 μM B53-Cy5, 20 μM *B53-Cy5; pulses of 60 μM CaCl2; compared to DMSO control
Procedure: Isolation of mouse liver mitochondria: All procedures used in animal studies were approved by the Institutional Animal Care and Use Committee at Massachusetts General Hospital. Female C57B1/6 J mice (Jackson Labs) age 10-12 weeks were anesthetized by isoflurane. The liver from one mouse was rinsed in ice-cold PBS, minced in ice-cold isolation buffer containing 0.28 M sucrose, 10 mM Hepes-KOH pH 7.2, 0.2 mM EDTA and 1% (w/v) BSA, gently homogenized with 4 strokes of a tight-fitting Teflon pestle at 1000 rpm, and then centrifuged for 10 minutes at 600 g at 4° C. The supernatant was recovered and centrifuged for 10 minutes at 8000 g at 4° C. The loose outer buffy coat was rinsed off and the pellet resuspended gently in isolation buffer and the spins were repeated. […] The suspension was kept on ice and all assays performed within 4-6 hours following isolation. Quality control was done with every preparation by adding 250 mcg mitochondria to 500 μl of assay buffer containing 137 mM KCl, 10 mM Hepes-KOH pH 7.2, 2.5 mM MgCl2, 5 mM each of glutamate and malate, and 3 mM KH2PO4. Sequential 150 μM ADP pulses were then delivered. Preparations with respiratory control ratio>6 (as assessed by the ratio of ADP-coupled state 3 respiration to state 4 respiration) were used for further experiments. Measurements were made in a custom-built fluorimeter using a cuvette with a Red Eye oxygen patch (Ocean Optics) and an optical probe that is connected to the fluorimeter.
Mitochondrial calcium retention capacity assays: 250 mcg of mouse liver mitochondria isolated as above were added to […] of assay buffer containing 125 mM KCl, 20 mM Hepes-KOH pH 7.2, 1 mM MgCl2, 5 mM each of glutamate and malate, and 3 mM KH2PO4. 0.5 μM Calcium Green-5N (Molecular Probes) was included to monitor extramitochondrial free Ca^2+. Fluorescence was continuously monitored in the custom-built fluorimeter described above, with excitation 470 nm and emission […]. Sequential 60 μM CaCl2) pulses were delivered until Ca^2+ uptake ceased and an abrupt release of previously taken up Ca^2+ was observed, consistent with mPTP opening. The calcium retention capacity ratio (CRC) was obtained by normalizing the number of Ca^2+ pulses that could be taken up in a given condition by that taken up under DMSO control conditions, as previously described^72.

CypD K118A = molecular target: T2, CypD K118A (Homo sapiens, UniProt P30405, K118A); experiment: Chymotrypsin coupled prolyl-isomerase assay; assay type: biochemical; settings: CypD K118A mutant; read-out: IC50^CypDK118A
T2 construct: made in house; host or cells: E. coli BL21(DE3)
Procedure: as §1

CypD S123E = molecular target: T3, CypD S123E (Homo sapiens, UniProt P30405, S123E); experiment: Chymotrypsin coupled prolyl-isomerase assay; assay type: biochemical; settings: CypD S123E gatekeeper mutant; read-out: IC50^CypDS123E
T3 construct: made in house; host or cells: E. coli BL21(DE3)
Procedure: as §1

CypA = molecular target: T4, CypA (Homo sapiens, UniProt P62937); experiment: Chymotrypsin coupled prolyl-isomerase assay; assay type: biochemical; settings: wild-type CypA
T4 construct: PPIA (UniProtKB Entry P62937: res 1-165); made in house; host or cells: E. coli BL21(DE3)
Procedure: as §1

CypD K118E = molecular target: T5, CypD K118E (Homo sapiens, UniProt P30405, K118E); experiment: Chymotrypsin coupled prolyl-isomerase assay; assay type: biochemical; settings: CypD K118E mutant; read-out: IC50^CypDK118E
T5 construct: made in house; host or cells: E. coli BL21(DE3)
Procedure: as §1

CypD [3] = experiment: Chymotrypsin coupled prolyl-isomerase assay; assay type: biochemical, human; settings: CypD versus wild-type CypA
Procedure: as §1

CypA E81S/K82R = molecular target: T6, CypA E81S/K82R (Homo sapiens, UniProt P62937, E81S/K82R); experiment: Chymotrypsin coupled prolyl-isomerase assay; assay type: biochemical; settings: CypA E81S/K82R gatekeeper mutant; read-out: IC50^CypAE81S/K82R
T6 construct: Lane 12-SNA-CypA E81S/K82R (1-165); His6 tag (N, cleaved yes); made in house; host or cells: E. coli BL21(DE3)
Procedure: as §1

CypB = molecular target: T7, CypB (Homo sapiens, UniProt P23284); experiment: Chymotrypsin coupled prolyl-isomerase assay; assay type: biochemical; settings: wild-type CypB
T7 construct: PPIB (UniProtKB Entry P23284: res 34-216); His6 tag with TEV site (seen as […]- and […]- forms) (N); made in house; host or cells: E. coli BL21(DE3)
Procedure: as §1

CypB E121S = molecular target: T8, CypB E121S (Homo sapiens, UniProt P23284, E121S); experiment: Chymotrypsin coupled prolyl-isomerase assay; assay type: biochemical; settings: CypB E121S gatekeeper mutant; read-out: IC50^CypBE121S
T8 construct: Lane 14-SNA-CypB E121S (34-216); His6 tag (N, cleaved yes); made in house; host or cells: E. coli BL21(DE3)
Procedure: as §1

CypE [4] = molecular target: T9, CypE (Homo sapiens, UniProt Q9UNP9); experiment: Assessment of covalent modification by mass spectrometry; settings: after treatment with NaCNBH3
T9 construct: PPIE (UniProtKB Entry Q9UNP9: res 131-301); host or cells: E. coli BL21(DE3)
Procedure: Assessment of covalent modification of CypE and other cyclophilin proteins: Into PCR strip, CypE or other cyclophilin in assay buffer (25 mM HEPES pH 8.0, 100 mM NaCl, 0.01% Triton X-100) was incubated with compound for 1 hour at room temperature. Final concentrations were 20 μM CypE, 100 μM compound, 0.5% DMSO, at a final volume of 20 μL. For analysis of lysine-iminoboronate modification, samples were directly submitted to Harvard's Center for Mass Spectroscopy for LC-MS analysis. For amine-lysine modification, samples were treated with 5 μL of 125 mM sodium cyanoborohydride dissolved in 25 mM Ammonium bicarbonate solution (pH 8.0) and incubated for 4 hours at room temperature. For all other wild-type cyclophilins, protein was treated for 4 hours with C3A, followed by 16 hour treatment with NaCNBH3. Final [NaCNBH3]=25 mM. Samples were then submitted for LC-MS as described above.

CypE [5] = molecular target: T9, CypE; experiment: Chymotrypsin coupled prolyl-isomerase assay; assay type: biochemical; settings: for IC50: wild-type CypE
Procedure: as §1

CypE K217A [6] = molecular target: T10, CypE K217A (Homo sapiens, UniProt Q9UNP9, K217A); experiment: Chymotrypsin coupled prolyl-isomerase assay; assay type: biochemical
T10 construct: Lane 5-GS-CypE K217A (131-301); His6 tag (N, cleaved yes); made in house; host or cells: E. coli BL21(DE3)
Procedure: as §1

CypE [7] = molecular target: T9, CypE; experiment: Competition anisotropy (fluorescence polarization) binding assay with A26-Fl; settings: for CypE binding in FP competition (in words): compared to C3A
Procedure: (§2) Competition anisotropy binding assay with A26-Fl: Adapted from previous work^54, into a flat-bottom black untreated 96 well plate (Corning), cyclophilin in assay buffer (25 mM HEPES pH 8.0, 100 mM NaCl, 0.01% Triton X-100) at a predetermined concentration from FIG. 27 was incubated with 0.5 nM A26-Fl for 10 minutes at room temperature. Competitor macrocycle was then added to each well and incubated for 24 hours. Final assay volume was 100 μL with 0.25% DMSO. Fluorescence anisotropy was then measured using a Tecan Spark® plate reader using 492 nm/523 nm excitation/emission settings. Raw fluorescence polarization data was normalized to protein+fluorescent probe and buffer+fluorescent probe and Ki values were calculated using one site-competitive binding equation with Prism 9, importing Kd values from A26-Fl (FIGS. 12A-12C).

CypE K217A [8] = molecular target: T10, CypE K217A; experiment: as above
Procedure: as §2

T10 sequence (Q9UNP9 131-301 K217A): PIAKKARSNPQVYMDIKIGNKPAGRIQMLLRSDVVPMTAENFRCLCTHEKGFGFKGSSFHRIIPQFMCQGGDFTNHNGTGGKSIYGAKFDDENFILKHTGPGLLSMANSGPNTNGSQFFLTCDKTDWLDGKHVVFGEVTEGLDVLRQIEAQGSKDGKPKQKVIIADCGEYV
T9 sequence (Q9UNP9 131-301): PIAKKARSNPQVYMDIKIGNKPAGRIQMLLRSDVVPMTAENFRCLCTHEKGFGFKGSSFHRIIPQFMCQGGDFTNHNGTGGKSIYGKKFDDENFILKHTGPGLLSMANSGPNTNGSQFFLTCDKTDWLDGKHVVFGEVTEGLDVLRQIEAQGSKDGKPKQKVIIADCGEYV
T1 sequence (P30405 45-207): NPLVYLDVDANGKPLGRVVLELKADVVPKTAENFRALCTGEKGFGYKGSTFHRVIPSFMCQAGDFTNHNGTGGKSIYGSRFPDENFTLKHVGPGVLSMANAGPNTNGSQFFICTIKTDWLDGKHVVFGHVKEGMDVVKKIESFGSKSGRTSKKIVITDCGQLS
T7 sequence (P23284 34-216): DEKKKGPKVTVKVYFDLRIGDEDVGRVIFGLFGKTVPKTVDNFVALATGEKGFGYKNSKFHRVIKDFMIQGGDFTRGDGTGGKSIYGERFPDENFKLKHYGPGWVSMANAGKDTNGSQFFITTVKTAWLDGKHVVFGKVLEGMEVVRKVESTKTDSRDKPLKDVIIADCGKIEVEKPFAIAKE
T4 sequence (P62937 whole entry): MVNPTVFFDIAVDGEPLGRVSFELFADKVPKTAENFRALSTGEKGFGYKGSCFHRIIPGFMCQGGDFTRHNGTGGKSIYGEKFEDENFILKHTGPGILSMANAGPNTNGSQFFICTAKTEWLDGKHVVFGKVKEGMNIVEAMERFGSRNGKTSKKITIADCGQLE
T2 sequence (P30405 45-207 K118A): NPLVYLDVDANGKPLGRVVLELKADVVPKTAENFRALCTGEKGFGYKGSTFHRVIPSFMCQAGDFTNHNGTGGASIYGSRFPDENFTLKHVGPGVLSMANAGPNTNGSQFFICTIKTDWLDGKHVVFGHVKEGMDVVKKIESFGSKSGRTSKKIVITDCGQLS
T5 sequence (P30405 45-207 K118E): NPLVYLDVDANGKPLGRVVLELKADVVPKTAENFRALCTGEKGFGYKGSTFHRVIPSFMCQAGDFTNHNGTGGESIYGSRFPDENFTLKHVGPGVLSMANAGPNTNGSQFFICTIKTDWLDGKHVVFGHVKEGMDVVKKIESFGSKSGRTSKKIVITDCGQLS
T8 sequence (P23284 34-216 E121S): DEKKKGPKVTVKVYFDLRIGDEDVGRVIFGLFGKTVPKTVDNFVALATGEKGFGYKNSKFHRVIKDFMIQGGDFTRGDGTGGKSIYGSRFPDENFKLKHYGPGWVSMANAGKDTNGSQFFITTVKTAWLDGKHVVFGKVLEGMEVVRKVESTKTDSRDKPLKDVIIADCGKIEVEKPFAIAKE
T3 sequence (P30405 45-207 S123E): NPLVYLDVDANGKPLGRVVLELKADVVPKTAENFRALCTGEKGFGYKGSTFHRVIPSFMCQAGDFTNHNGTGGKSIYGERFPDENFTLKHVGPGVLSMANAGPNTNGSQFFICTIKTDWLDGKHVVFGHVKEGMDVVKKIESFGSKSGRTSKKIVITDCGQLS
T6 sequence (P62937 whole entry E81S/K82R): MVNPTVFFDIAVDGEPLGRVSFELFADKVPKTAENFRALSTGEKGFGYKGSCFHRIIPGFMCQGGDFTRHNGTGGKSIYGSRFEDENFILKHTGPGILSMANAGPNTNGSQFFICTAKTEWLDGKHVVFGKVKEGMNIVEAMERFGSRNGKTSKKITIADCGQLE

## C[N+]1=C(/C=C/C=C/C=C2\N(CCCCCC(=O)NCCNC(=O)[C@H]3CCNC(=O)/C=C/C(=O)N4CCC[C@@](Cc5ccccc5)(C4)C(=O)N[C@H](Cc4ccc(-c5ccc(CC(C(=O)O)C(=O)O)cc5)cc4)C(=O)NCc4ccccc4CC(=O)N3)c3ccccc3C2(C)C)C(C)(C)c2ccccc21 [*B52-Cy5]
CypD [1]
  CypD prolyl-isomerase inhibition (in words): did not inhibit CypD
cyclophilins
  inhibition of cyclophilins tested (in words): no substantial inhibition profile
HeLa cells
  mitochondrial localization (overlap with Mitotracker Green): poor mitochondrial localization and fluorescence
[2]
  calcium retention capacity prior to mPTP opening: did not influence calcium retention capacity

## C[N+]1=C(/C=C/C=C/C=C2\N(CCCCCC(=O)NCCNC(=O)[C@H]3CCNC(=O)/C=C/C(=O)N4CCC[C@@](Cc5ccccc5)(C4)C(=O)N[C@H](Cc4ccc(-c5ccc(C(CC(=O)O)CC(=O)O)cc5)cc4)C(=O)NCc4ccccc4CC(=O)N3)c3ccccc3C2(C)C)C(C)(C)c2ccccc21 [*B53-Cy5]
CypD [1]
  CypD prolyl-isomerase inhibition (in words): did not inhibit CypD
cyclophilins
  inhibition of cyclophilins tested (in words): no substantial inhibition profile
HeLa cells
  mitochondrial localization (overlap with Mitotracker Green): poor mitochondrial localization and fluorescence
[2]
  calcium retention capacity prior to mPTP opening: did not influence calcium retention capacity

## NCCOCCNC(=O)[C@@H]1CCNC(=O)/C=C/C(=O)N2CCC[C@](Cc3ccccc3)(C2)C(=O)N[C@@H](Cc2ccc(-c3ccc(CC(C(=O)O)C(=O)O)cc3)cc2)C(=O)NCc2ccccc2CC(=O)N1 [Compound B52]
CypD [1]; wild-type CypD
  IC50: 10 nM
CypD K118A
  IC50: 73 nM
CypD S123E
  IC50: 240 nM
CypA
  IC50: 1100 nM
CypD K118E
  IC50: 300 nM
CypD [3]
  selectivity for CypD over CypA: 100 fold
CypA E81S/K82R
  IC50: 27 nM
CypB
  IC50: 210 nM
CypB E121S
  IC50: 8 nM
cyclophilins
  cyclophilin selectivity profile (in words): high potency and selectivity for CypD
cyclophilins; mutants as named at the place
  potency on cyclophilin mutants compared to wild-type (in words): little to no ablation of potency

## NC(=O)[C@@H]1CCNC(=O)/C=C/C(=O)N2CCC[C@](Cc3ccccc3)(C2)C(=O)N[C@@H](Cc2ccc(-c3ccc(C=O)c(B(O)O)c3)cc2)C(=O)NCc2ccccc2CC(=O)N1 [Compound C3A]
CypE [4]
  mass shift of covalent adduct with CypE: 806 Da and 779 Da and 807 Da
CypE [5]
  CypE potency and selectivity in prolyl isomerase assay (in words): good selectivity and potency for CypE
  IC50 more potent for CypE than for the other ten cyclophilins screened: 30-750 fold
  higher CypE inhibition potency of C3A over C5A: 75 fold
  selectivity for CypE over CypA: > 100 fold
CypE [5]; read-out: IC50 against CypE prolyl isomerase activity
  IC50: 13 nM
CypE K217A [6]
  inhibition of CypE K217A compared to wild-type (in words): Loss of C3A inhibition potency
  less potent at inhibiting K217A prolyl isomerase activity compared to wild-type CypE: 150 fold
CypE K217A [6]; CypE K217A mutant, read-out: IC^CypEK217A50
  IC50: 2000 nM
CypE [7]; 0.5 nM A26-Fl, wild-type CypE, read-out: Ki, inhibition of A26-Fl binding to CypE
  Ki: 72 nM
CypE [7]; FP competition with A26-Fl, lysine-containing cyclophilins
  more potency for CypE than for other tested cyclophilins: > 10 fold
CypE [7]
  CypE binding in FP competition (in words): selectivity for CypE
CypE K217A [8]
  less potent at competing A26-Fl off of CypE K217A compared to wild-type CypE: 40 fold
CypE K217A [8]; 0.5 nM A26-Fl, CypE K217A, read-out: K^CypEK217Ai
  Ki: 3100 nM
CypE K217A [8]; FP competition with 0.5 nM A26-Fl
  binding to CypE K217A compared to wild-type (in words): significantly attenuated binding

## NC(=O)[C@@H]1CCNC(=O)/C=C/C(=O)N2CCC[C@](Cc3ccccc3)(C2)C(=O)N[C@@H](Cc2ccc(-c3ccc(C=O)cc3)cc2)C(=O)NCc2ccccc2CC(=O)N1 [Compound C5A]
CypE [4]
  mass shift of covalent adduct with CypE: 806 Da and 780 Da
CypE [5]
  CypE potency and selectivity in prolyl isomerase assay (in words): loss in CypE potency and promiscuous cyclophilin inhibition
CypE [5]; read-out: IC50^CypE
  IC50: 1000 nM
CypE [7]; FP competition with A26-Fl against CypE
  decrease in potency relative to C3A: 16 fold
CypE [7]
  CypE binding in FP competition (in words): attenuated inhibition of CypE

Source: patent publication US20250109165A1, “CYCLOPHILIN INHIBITORS AND USES THEREOF” (The Broad Institute, Inc., priority 2022, published 2025)
